Assay results reported in ChEMBL document CHEMBL1201862, “PubChem BioAssay data set” (2004).
Active and inactive are the calls of the source. For most assays here, no stated cut-off is given here; in the data, actives have a measured EC50 and inactives only a lower limit.

Key:
[1] = Luminescence Cell-Based Dose Confirmation HTS to Identify Activators of 5'UTR Stem-Loop Driven Alpha-Synuclein mRNA Translation in H4 Neuroglioblastoma Cells. [Related pubchem assays: 1829 (Project Summary), 1814 (Primary HTS)]; type: functional
[2] = Luminescence Cell-Based Dose Response HTS to Identify Activators of Luciferase Translation or Activity in H4 […] Cells. [Related pubchem assays: 1829 (Project Summary), 1814 (Primary HTS)]; type: functional
[3] = test system: H4; assay: Luminescence Cell-Based Dose Response HTS to Identify Activators of 5'UTR Stem-Loop Driven Prion Protein mRNA Translation in H4 Neuroglioblastoma Cells. [Related pubchem assays: 1829 (Project Summary), 1814 (Primary HTS)]; type: functional; details: Homo sapiens
[4] = NIH-3T3 fibroblast cytotoxicity, dose response, cytotoxicity control, cell-based, fluorescence, Alamar Blue, secondary assay (AID 2327); type: functional;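 further: NIH-3T3 mouse fibroblasts cultured with fluconazole at 8 µg/mL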
[5] = fluconazole-exposed Candida albicans growth modulators – fluorescence, retest, confirmation (AID 2467); type: functional, cell-based
[6] = molecular target: Luciferin 4-monooxygenase (Photinus pyralis, UniProt P08659); assay: inhibition of purified Photinus pyralis luciferase – biochemical, luminescence, dose response (AID 1891)
Chain of Luciferin 4-monooxygenase (P08659 whole entry): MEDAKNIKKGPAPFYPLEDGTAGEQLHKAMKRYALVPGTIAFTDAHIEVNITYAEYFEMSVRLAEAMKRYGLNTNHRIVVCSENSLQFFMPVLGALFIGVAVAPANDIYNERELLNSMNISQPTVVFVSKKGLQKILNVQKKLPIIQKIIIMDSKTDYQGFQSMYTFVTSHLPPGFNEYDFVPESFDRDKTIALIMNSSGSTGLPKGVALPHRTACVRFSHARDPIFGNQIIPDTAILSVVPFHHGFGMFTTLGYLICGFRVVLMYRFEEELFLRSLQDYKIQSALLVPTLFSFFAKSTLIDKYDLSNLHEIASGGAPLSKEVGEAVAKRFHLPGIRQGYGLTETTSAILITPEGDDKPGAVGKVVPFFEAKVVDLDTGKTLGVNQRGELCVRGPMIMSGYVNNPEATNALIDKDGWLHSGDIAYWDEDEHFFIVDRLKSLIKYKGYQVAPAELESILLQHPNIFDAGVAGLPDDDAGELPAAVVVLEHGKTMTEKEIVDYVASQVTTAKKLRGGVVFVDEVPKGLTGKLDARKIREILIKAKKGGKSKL

[7] = Luminescence Cell-Based Dose Confirmation HTS to Identify Inhibitors of Platelet Dense Granule Release. [Related pubchem assays: 1663 (Primary HTS), 1678 (Summary of Project)]; type: functional
[8] = molecular target: T1, Calpain-2 catalytic subunit (Sus scrofa, UniProt P43367); assay: m-calpain protease blockers, concentration series – biochemical, fluorogenic peptide substrate, dose response (AID 1420); type: functional
T1 sequence (P43367 whole entry): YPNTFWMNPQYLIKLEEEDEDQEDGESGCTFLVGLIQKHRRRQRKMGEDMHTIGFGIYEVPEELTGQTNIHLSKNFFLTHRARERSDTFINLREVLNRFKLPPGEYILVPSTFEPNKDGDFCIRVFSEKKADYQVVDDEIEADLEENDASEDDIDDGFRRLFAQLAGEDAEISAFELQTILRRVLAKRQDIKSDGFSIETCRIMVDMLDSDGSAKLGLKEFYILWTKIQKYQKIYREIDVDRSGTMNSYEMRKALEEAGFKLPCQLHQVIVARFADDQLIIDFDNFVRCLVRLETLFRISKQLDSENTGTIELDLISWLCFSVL

[9] = molecular target: T2, Protein RecA (Mycobacterium tuberculosis, UniProt P9WHJ3); assay: Fluorescence Cell-Free Homogeneous Dose Retest to Identify Inhibitors of RecA-Intein Splicing Activity. [Related pubchem assays (depositor defined):AID2097, AID2223, AID489010, AID492950]; type: functional
T2 sequence (P9WHJ3 whole entry): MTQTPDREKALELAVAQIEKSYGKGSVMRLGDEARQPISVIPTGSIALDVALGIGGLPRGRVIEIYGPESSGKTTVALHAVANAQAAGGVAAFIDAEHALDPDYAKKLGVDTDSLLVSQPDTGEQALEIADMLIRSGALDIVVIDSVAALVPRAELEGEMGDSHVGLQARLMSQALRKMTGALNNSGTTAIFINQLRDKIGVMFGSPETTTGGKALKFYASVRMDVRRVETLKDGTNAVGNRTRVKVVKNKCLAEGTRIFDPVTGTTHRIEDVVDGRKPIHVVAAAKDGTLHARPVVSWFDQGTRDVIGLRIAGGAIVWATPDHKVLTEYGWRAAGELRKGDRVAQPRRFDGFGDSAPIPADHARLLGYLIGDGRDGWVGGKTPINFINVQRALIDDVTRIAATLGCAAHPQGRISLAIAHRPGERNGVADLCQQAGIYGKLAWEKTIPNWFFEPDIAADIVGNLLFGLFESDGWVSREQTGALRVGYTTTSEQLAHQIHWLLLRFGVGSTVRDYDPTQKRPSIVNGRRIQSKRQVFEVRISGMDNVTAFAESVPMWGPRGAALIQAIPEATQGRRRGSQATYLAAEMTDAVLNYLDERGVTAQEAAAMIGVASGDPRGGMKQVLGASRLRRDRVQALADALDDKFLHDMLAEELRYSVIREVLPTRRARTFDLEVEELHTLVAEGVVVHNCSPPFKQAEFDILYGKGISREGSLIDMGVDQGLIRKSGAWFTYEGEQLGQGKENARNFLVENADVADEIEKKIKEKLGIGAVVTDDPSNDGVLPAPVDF

SMILES | EC50 [1] | EC50 [2] | IC50 [8] | further results
O=C(c1cc2ccccc2oc1=O)N(c1ccc(Cl)cc1)C1C=CS(=O)(=O)C1 (configuration not stated) | 13.6 µM (active) | 36.3 µM (active) |  | EC50 [3]: > 120 µM (not active)
COc1ccccc1NC(=O)Cn1cnc2c(cnn2-c2ccccc2)c1=O |  |  |  | EC50 [4]: > 150 µM (inactive); EC50 [5]: > 38 µM (not active)
O=C(Nc1ccccc1)C1=C[C@@H](c2ccccc2)C[C@@H](OCc2ccc(CO)cc2)O1 | 7.69 µM (active) | > 120 µM (not active) |  | EC50 [3]: 14.2 µM (active)
CN(C(=O)CSc1nncn1C)C1CCCN(Cc2ccccc2F)C1 (configuration not stated) |  |  |  | EC50 [6]: > 112 µM (not active); EC50 [7]: > 112 µM (not active)
Cc1cc(C)nc(NC2=NCCS2)n1 |  |  |  | EC50 [6]: > 112 µM (not active); EC50 [7]: > 112 µM (not active)
O=C(Nc1cccnc1)C1CCN(S(=O)(=O)c2cccs2)CC1 | > 120 µM (not active) | > 120 µM (not active) |  | EC50 [3]: > 120 µM (not active)
O=C1CC2C(=O)NCCN2C(NC(=O)c2ccc(Cl)cc2)=N1 (configuration not stated) |  |  | 0.931 µM (not active) | 
CC(NC(=O)c1ccccc1)c1ccc(F)cc1 (configuration not stated) |  |  | > 50 µM (not active) | 
CCOC(=O)N1CCN(CC(=O)Nc2sccc2C#N)CC1 |  |  | 33.6 µM (not active) | 
CCCCC(=O)Nc1ccc(C(=O)c2ccccc2)cc1 |  |  | > 50 µM (not active) | 
CCN(c1ccc(OCC(=O)OCC(=O)Nc2ccc(F)c(F)c2F)cc1)S(=O)(=O)c1ccccc1 |  |  | 3.96 µM (not active) | 
CCCCCOc1ccc(CSc2n[nH]c(C)n2)cc1 | 63 µM (active) | 14.5 µM (active) |  | EC50 [3]: 20.8 µM (active)
COc1ccccc1C1CC(c2ccco2)=NN1S(C)(=O)=O (configuration not stated) |  |  |  | EC50 [4]: > 160 µM (inconclusive); EC50 [5]: > 38 µM (not active)
O=C(NCC(O)c1ccccc1)c1ccc(Cl)c(S(=O)(=O)N2CCCC2)c1 (configuration not stated) | 37.8 µM (active) | 14.9 µM (active) |  | 
Cc1cc(C(=O)CSc2nc3ccccc3o2)c(C)n1C1CC1 | 35.7 µM (active) | 0.905 µM (active) |  | 
O=C(CC1CCCCC1)NCc1ccccc1Cl | > 120 µM (not active) | 14.1 µM (active) |  | EC50 [3]: > 120 µM (not active)
O=C(Nc1ccc(F)c(Cl)c1)NC1CC1 |  |  |  | EC50 [4]: > 150 µM (inactive); EC50 [5]: 2.1 µM (active)
COc1ccc(/C(=C/Nc2cccc(Br)c2)C(C)=O)cc1OC |  |  | 9 µM (not active) | 
C=CCn1c(CCCNC(=O)c2ccccc2OC)nc2ccccc21 |  |  | 13.2 µM (not active) | 
O=C(Nc1ccc2c(c1)OCO2)C1CC(c2c(F)cccc2Cl)=NO1 (configuration not stated) | 3.83 µM (active) | 25.6 µM (active) |  | EC50 [3]: 13.6 µM (active)
CC(=O)c1cccc(NC(=S)NC(=O)c2ccc(C)cc2)c1 |  |  |  | EC50 [4]: > 160 µM (inactive); EC50 [5]: > 38 µM (not active)
CCOC(=O)CN(C(=O)CSc1n[nH]c2c3cc(F)ccc3nc-2n1)c1ccccc1 |  |  | 5.94 µM (not active) | 
CC1=C(C(=O)OCc2ccccc2)C(c2cccs2)N2C(=O)CCSC2=N1 (configuration not stated) |  |  | 8.99 µM (not active) | 
O=C(NCc1ccccn1)C(=O)Nc1ccccc1 | 46.3 µM (active) | 27.2 µM (active) |  | EC50 [3]: 13 µM (active)
CNC(=O)c1cc(S(=O)(=O)N(C)C)ccc1Cl |  |  |  | EC50 [6]: > 112 µM (not active); EC50 [7]: > 112 µM (not active)
CCOC(=O)C1CCN(Cc2cc(C(C)C)c(O)c(C(C)C)c2)CC1 |  |  |  | EC50 [9]: > 380 µM (inactive)
O=C1c2ccccc2S(=O)(=O)c2cc(N3CCc4ccccc4C3)ccc21 | 14 µM (active) | 16.3 µM (active) |  | EC50 [3]: 15.6 µM (active)
N#C/C(=C(/O)CN1C(=O)c2ccccc2C1=O)c1nc2ccccc2[nH]1 |  |  | 2.28 µM (not active) | 
O=C(O)CC1Sc2ccccc2NC1=O (configuration not stated) |  |  |  | EC50 [6]: > 112 µM (not active); EC50 [7]: > 112 µM (not active)
N#Cc1c(-c2ccc(Cl)cc2)cc(-c2ccccc2)nc1SCC(=O)O |  |  |  | EC50 [4]: 134 µM (active); EC50 [5]: 1.57 µM (active)
